Key:
MDA-MB-453 [1] = conditions: 72 h
Summary of the method: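 Viability of breast cancer cell lines was measured with CellTiter-Blue after 72 h of incubation on compound-loaded 384-well plates. Cells were seeded in 20 µl onto compound dissolved in 5 µl medium, and 2.5 µl reagent was added for 2 h at 37 °C before reading at 560/590 nm. EC50 was fitted from percent-inhibition dose-response data censored at the highest concentration, normalised per plate to vehicle and a positive kill control, with zero drug sensitivity score rows dropped.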

BT-474 = assay: normalised viability (% of control), CellTiter-Blue; higher = more viable cells (about 100 = DMSO control); conditions: 10000 nM; incubation time: 72 h
Summary of the method: (§1)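 After 72 h on compound-loaded 384-well plates, breast cancer cell lines received 2.5 µl CellTiter-Blue reagent for 2 h at 37 °C. Fluorescence at 560/590 nm was scaled per plate so that vehicle was 100 and a positive kill control was 0. The value stands for normalised viability at a single listed concentration of the series.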

BT-549 = assay: as above; conditions: 10000 nM; incubation time: 72 h
Summary of the method: as §1

CAL-120 [2] = assay: as above; conditions: 10000 nM; incubation time: 72 h
Summary of the method: as §1

CAL-148 [3] = assay: as above; conditions: 100 nM; incubation time: 72 h
Summary of the method: as §1

CAL-51 [4] = assay: as above; conditions: 100 nM; incubation time: 72 h
Summary of the method: as §1

CAL-85-1 [5] = assay: as above; conditions: 100 nM; incubation time: 72 h
Summary of the method: as §1

DU-4475 [6] = assay: as above; conditions: 100 nM; incubation time: 72 h
Summary of the method: as §1

HCC1143 = assay: as above; conditions: 10000 nM; incubation time: 72 h
Summary of the method: as §1

HCC1599 [7] = assay: as above; conditions: 10000 nM; incubation time: 72 h
Summary of the method: as §1

HCC1937 = assay: as above; conditions: 10000 nM; incubation time: 72 h
Summary of the method: as §1

HDQ-P1 = assay: as above; conditions: 100 nM; incubation time: 72 h
Summary of the method: as §1

Hs578T [8] = assay: as above; conditions: 10000 nM; incubation time: 72 h
Summary of the method: as §1

MDA-MB-231 = assay: as above; conditions: 10000 nM; incubation time: 72 h
Summary of the method: as §1

MDA-MB-436 [9] = assay: as above; conditions: 10000 nM; incubation time: 72 h
Summary of the method: as §1

MDA-MB-453 [10] = assay: as above; conditions: 100 nM; incubation time: 72 h
Summary of the method: as §1

MDA-MB-468 = assay: as above; conditions: 10000 nM; incubation time: 72 h
Summary of the method: as §1

MFM-223 = assay: as above; conditions: 10000 nM; incubation time: 72 h
Summary of the method: as §1

SK-BR-3 = assay: as above; conditions: 10000 nM; incubation time: 72 h
Summary of the method: as §1

CAL-148 [11] = assay: as above; conditions: 10000 nM; incubation time: 72 h
Summary of the method: as §1

CAL-51 [12] = assay: as above; conditions: 10000 nM; incubation time: 72 h
Summary of the method: as §1

CAL-85-1 [13] = assay: as above; conditions: 10000 nM; incubation time: 72 h
Summary of the method: as §1

DU-4475 [14] = assay: as above; conditions: 10000 nM; incubation time: 72 h
Summary of the method: as §1

MDA-MB-453 [15] = assay: as above; conditions: 10000 nM; incubation time: 72 h
Summary of the method: as §1

CAL-120 [16] = assay: drug sensitivity score (DSS), CellTiter-Blue viability (DSS (AUC-based score)); higher = stronger viability inhibition; extreme values may be limits of the assay; conditions: incubation time: 72 h
Experimental: (§2)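 DSRT with the CellTiter-Blue (resazurin reduction) viability readout, fluorescence 560/590 nm, 72 h incubation. Plates were normalised to DMSO and benzethonium chloride controls. DSS is computed from the area under the fitted dose-response curve (5 or 9 concentrations).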

HCC1599 [17] = assay: as above; conditions: incubation time: 72 h
Experimental: as §2

Hs578T [18] = assay: as above; conditions: incubation time: 72 h
Experimental: as §2

MDA-MB-436 [19] = assay: as above; conditions: incubation time: 72 h
Experimental: as §2

Compound: CCCCCCCCc1ccc(CCC(N)(CO)CO)cc1 [Fingolimod]
- EC50, CellTiter-Blue viability (MDA-MB-453 [1]): 5.4 µM
- normalised viability (BT-474): 2.28%
- normalised viability (BT-549): 8.23%
- normalised viability (CAL-120 [2]): 2.23%
- normalised viability (CAL-148 [3]): 87%
- normalised viability (CAL-51 [4]): 111%
- normalised viability (CAL-85-1 [5]): 96.6%
- normalised viability (DU-4475 [6]): 107%
- normalised viability (HCC1143): 69.5%
- normalised viability (HCC1599 [7]): 128%
- normalised viability (HCC1937): 2.06%
- normalised viability (HDQ-P1): 111%
- normalised viability (Hs578T [8]): 2.92%
- normalised viability (MDA-MB-231): 0.68%
- normalised viability (MDA-MB-436 [9]): 4.17%
- normalised viability (MDA-MB-453 [10]): 97.7%
- normalised viability (MDA-MB-468): 0.62%
- normalised viability (MFM-223): 9.42%
- normalised viability (SK-BR-3): 3.17%
- normalised viability (CAL-148 [11]): 62.2%
- normalised viability (CAL-51 [12]): 91.8%
- normalised viability (CAL-85-1 [13]): 4.87%
- normalised viability (DU-4475 [14]): 136%
- normalised viability (MDA-MB-453 [15]): 2.6%
- drug sensitivity score (CAL-120 [16]): 5.43
- drug sensitivity score (HCC1599 [17]): 0
- drug sensitivity score (Hs578T [18]): 5.16
- drug sensitivity score (MDA-MB-436 [19]): 8.37

Compound: CN(C)CCN1C(=O)c2cccc3cc(N)cc(c23)C1=O [Amonafide]
- EC50, CellTiter-Blue viability (MDA-MB-453 [1]): 4.23 µM
- normalised viability (BT-474): 69.3%
- normalised viability (BT-549): 47.9%
- normalised viability (CAL-120 [2]): 24.3%
- normalised viability (CAL-148 [3]): 84.7%
- normalised viability (CAL-51 [4]): 104%
- normalised viability (CAL-85-1 [5]): 87.8%
- normalised viability (DU-4475 [6]): 84.6%
- normalised viability (HCC1143): 43.5%
- normalised viability (HCC1599 [7]): 47.5%
- normalised viability (HCC1937): 29.5%
- normalised viability (HDQ-P1): 110%
- normalised viability (Hs578T [8]): 47.6%
- normalised viability (MDA-MB-231): 22.3%
- normalised viability (MDA-MB-436 [9]): 44.1%
- normalised viability (MDA-MB-453 [10]): 81%
- normalised viability (MDA-MB-468): 41.3%
- normalised viability (MFM-223): 31.6%
- normalised viability (SK-BR-3): 20.8%
- normalised viability (CAL-148 [11]): 8.2%
- normalised viability (CAL-51 [12]): 6.12%
- normalised viability (CAL-85-1 [13]): 27.6%
- normalised viability (DU-4475 [14]): 1.19%
- normalised viability (MDA-MB-453 [15]): 20.4%
- drug sensitivity score (CAL-120 [16]): 5.69
- drug sensitivity score (HCC1599 [17]): 1.04
- drug sensitivity score (Hs578T [18]): 1.1
- drug sensitivity score (MDA-MB-436 [19]): 3.57

Reference: the supplement of paper PMC4862054
